Test results from patent publication US20260227412A1, “USE OF IFN-I ACTIVITY AS A BIOMARKER FOR TLR INHIBITOR TREATMENT” (MERCK PATENT GMBH, priority 2022, published 2026).

Experiments:
[1] = tested on: patients hospitalized with COVID-19 pneumonia; experiment: Exploratory phase II clinical study of enpatoran in patients hospitalized with COVID-19 pneumonia (NCT04448756), time to recovery; type: in vivo, human
Description: An exploratory phase II clinical study in patients hospitalized with COVID-19 pneumonia was conducted to inter alia assess whether the TLR inhibitor enpatoran improves time to recovery (NCT04448756).
Statistical testing was considered exploratory, and results are presented with no adjustment of type I error for multiplicity. Time to recovery was defined as time from Day 1 to first occurrence of WHO 9-point ordinal scale of ≤3 and was estimated via Kaplan-Meier (KM) analysis, presented with two-sided 95% confidence intervals (CI). The effect of each dose level compared with placebo was evaluated using a stratified log-rank test.
Blood was collected directly in PAXgene RNA tubes from patients at baseline prior to treatment for measurement of gene expression. IFN-I activity was measured by DxTerity Diagnostics (Rancho Dominguez, California, USA), using the IFN-1 test, a commercially available chemical ligation-dependent probe amplification and gene expression test with relative quantitative analysis by capillary electrophoresis. Sample testing and analysis was performed as previously described (Kim et al., J Mol Diagn. 2015 March;17 (2): 118-27). The IFN-1 test measures the expression levels of four IFN response genes (HERC5, IFI27, IFIT1 and RSAD2), i.e. the Dx-4 IFN-I signature, relative to the expression levels of three housekeeping normalizer genes (ACTB, GAPDH and TFRC). Normalized expression values of each respective response gene were calculated per the following function: Normalized ExpressionGene i=Log2(HeightGene i)−Mean (Log2 (Normaliser Gene Height)). The IFN-I signature score was calculated by averaging the normalized expression values of the four response genes. The cut-off between high IFN-I signature and low IFN-I signature scores (−0.5), was set to the mean±2 SDs (95th percentile) of IFN-I signature scores from 281 healthy human donors. This cut-off falls within the trough of the observed bimodal distribution of IFN-I signature scores for cohorts of SLE patients.
149 patients received either placebo (n=49), or enpatoran 50 mg (n=54)0r 100 mg (n=46) BID. Mean IFN-I signature scores (50 mg BID-0.84; 100 mg BID-0.74; placebo-0.91) and the proportion of patients with high IFN-I signature scores at baseline (50 mg BID 35%; 100 mg BID 43%; placebo 35%) were reasonably consistent across treatment groups, as reflected by Table 2: […]

[2] = tested on: TLR7/8 activation in human PBMCs by patient-derived immune complexes; experiment: IFN-α production in healthy donor PBMCs stimulated with patient-derived immune complexes (AlphaLISA); type: cell-based; conditions: PBMCs pre-treated with 1 μM enpatoran for 30 minutes, immune complex 24 hours
Text: Blood sample collection: Blood samples were collected from subjects with lupus nephritis (LN), systemic lupus erythematosus (SLE), dermatomyositis (DM), polymyositis (PM), patients with inclusion body myositis (IBM) and healthy controls (HC). Blood plasma was isolated and frozen. Later, immunoglobulin G (IgG) was purified using protein A resin and the protein concentration determined.
Immune complex formation and peripheral blood mononuclear cell (PBMC) stimulation: To generate necrotic cell lysates, human embryonic kidney 293 cells were suspended at a concentration of 50 x10^6 cells/mL in phosphate buffered saline (PBS; Gibco, Grand Island, NY). The cells were frozen at −80° C. for 10 minutes followed by thawing at 37° C. Four freeze/thaw cycles were performed. The lysate was centrifuged at 400 g for 5 minutes to separate non-lysed cells and the supernatant was collected as necrotic cell lysate.
PBMCs were isolated from leukopacks collected from healthy donors (New York Blood Center, New York, NY) in sodium heparin tubes using Ficoll-Paque Plus (Cytiva Life Sciences, Uppsala, Sweeden). The cells were plated in 96-well U-bottom plates (4 x10^5 cells/well) in RPMI 1640 Medium (Gibco, Grand Island, NY) supplemented with 10% fetal bovine serum (FBS; Corning, Woodland, CA). […] The supernatants were collected and cytokine production was measured by AlphaLISA (PerkinElmer, Waltham, MA).

[3] = subgroup with high IFN-I signature scores at baseline, 50 mg BID
[4] = subgroup with high IFN-I signature scores at baseline, 100 mg BID

N#Cc1ccc(N2C[C@H](N)C[C@H](C(F)(F)F)C2)c2cccnc12 [enpatoran, 5-[(3R,5S)-3-amino-5-(trifluoromethyl)piperidin-1-yl]quinoline-8-carbonitrile]
KM-estimated cumulative recovery rate up to Day 14 [1, 3]: 78.6% | recovery rate at Day 28 [1, 3]: 73.3% | KM-estimated cumulative recovery rate up to Day 14 [1, 4]: 88.2% | recovery rate at Day 28 [1, 4]: 88.2% | recovery rate at Day 28 ([1]; subgroup with low IFN-I signature scores at baseline, 50 mg BID): 100% | recovery rate at Day 28 ([1]; subgroup with low IFN-I signature scores at baseline, 100 mg BID): 91.3% | primary efficacy endpoint of the time to recovery from Day 1 through Day 28 ([1]; unstratified patient populations, enpatoran 50 mg or 100 mg BID vs placebo): not met | recovery rate ([1]; unstratified, Day 1 through Day 28, 50 mg BID): 88.9% | recovery rate ([1]; unstratified, Day 1 through Day 28, 100 mg BID): 91.3% | median time to recovery ([1]; unstratified, range across groups (placebo, 50 mg BID, 100 mg BID)): 3.4 to 3.9 days | IFN-α production [2]: completely inhibited
